Drawing on EP0487930B1, “Benzo[C]phenanthridinium derivatives” (NIPPON KAYAKU KABUSHIKI KAISHA, priority 1990, dated 1992), this text covers stability on storage, IC50 and inhibition for six molecules.

Series [1] is described as follows: Storage stability of the powder at room temperature. It counts as physicochemical. The conditions noted are these: stored at room temperature for a long period of time. The text has this: This compound is a powdery material having a yellowish color immediately after the production thereof. It gradually changes its color into brown. […] This is because a decomposition product, which is difficultly soluble in water, has been formed during the storage of the compound. So, it is not considered that the compound has properties suitable for formulating into a phamaceutical preparation.
2,3-(methylenedioxy)-5-methyl-7-hydroxy-8-ethoxy-benzo[c]phenanthridinium hydrogen sulfate (compound A-0), wherein the acid residue X^- is a hydrogen sulfate ion HSO4^-, is a compound according to the invention, and can be obtained as yellow powder. […] A 0.5 µM aqueous solution of 2,3-(methylenedioxy)-5-ethyl-7-hydroxy-8-methoxy-benzo[c]phenanthridinium chloride, wherein the acid residue X^- is a chloride ion Cl^-, has a pH of 4.3. On the other hand, a 0.5 µM aqueous solution of 2,3-(methylenedioxy)-5-methyl-7-hydroxy-8-methoxy-benzo[c]phenanthridinium hydrogen sulfate according to the invention, wherein the acid residue X^- is a hydrogen sulfate ion HSO4^-, has a pH of 3.9. […] There are no disadvantages in the pharmaceutical activities of such compounds when they have the form of hydrogen salts such as hydrogen sulfate salts. Therefore, the hydrogen salt compounds are practically useful as medicines in view of the enhanced stability thereof.

A further series relates to HeLa S3. Briefly: Growth inhibition activity against tumor cells (Methylene Blue staining). Type of series: cell-based. The conditions noted are these: Homo sapiens. As to the method:
(§1) Various tumor cells were cultured at 37°C for 24 hours in 5% gaseous carbon dioxide, and then subjected to an action of a test drug for 2-4 days. After that, the cells were stained with 0.05% Methylene Blue. The pigment were extracted from the stained cells. The growth inhibition rate of the cells was determined based on absorbance of the extracted pigment at 660 nm, and the 50% growth inhibitory concentration (IC50) was calculated.
(§2) In this table, the abbreviated expressions have the following tumor cells: HeLa S3 = carcinoma colli; MMI = ovarian cancer; SHIN-3 = ovarian cancer; N-231 = small cell lung cancer; Lu-130 = small cell lung cancer; Nakajima = gastric cancer; and the expression "n.t." represents "not tested". These tests were conducted according to a simultaneous comparison test method, except the case of HeLa S3.

For another series, the system named is Lu-130. Described as above. Type of series: cell-based. As to the method:
as §1, §2

The test system of another series is MMI. The series is described as above. Type of series: cell-based. On the procedure:
as §1, §2

In another series the test system is N-231. The series is described as above. Type of series: cell-based. On the procedure:
as §1, §2

For the next series, the system named is SHIN-3. Described as above. It counts as cell-based. On the procedure:
as §1, §2

A further series deals with Nakajima. The series is described as above. Type of series: cell-based. The conditions noted are these: Nakajima = gastric cancer; test drug for 2-4 days. As to the method: as §1, §2
Series [2] concerns platelet aggregation caused by platelet activation factor (PAF) in platelet-rich plasma (PRP). Nature of the series: Inhibition activity on platelet aggregation (serotonin release, anti-PAF activity). It counts as cell-based, Japanese albino rabbits. Conditions: Oryctolagus cuniculus, PAF 10^-7 M, serotonin release inhibition rate; for inhibition at 25 µg/mL: Concentration 25 µg/ml; for inhibition at 50 µg/mL: Concentration 50 µg/ml; for inhibition at 100 µg/mL: Concentration 100 µg/ml. On the procedure:
Platelet-rich plasma (PRP) was collected from Japanese albino rabbits (weighing 3-4 kg). As a platelet aggregation inducer, platelet activation factor (PAF) was used in a final concentration of 10^-7 M. A test drug was added to PRP. After incubation for a definite period of time, PAF was added to cause a platelet aggregation reaction. The reaction was terminated with EDTA. After a centrifugation, the supernatant was removed to obtain platelet precipitates. Distilled water was added to the platelet precipitates, whereby the serotonin remained in the platelet was reacted with an orthophthalaldehyde reagent to form a serotonin-orthophthaladehyde condensate. The condensate was measured at an excited wavelength of 360 nm and at a measurement wavelength of 475 nm. Anti-PAF activity of the test drug was determined by the following equation. Serotonin release inhibition rate (%) =((Test drug + PAF) value - PAF value)/(Blank value - PAF value)x 100 [formula] In the equation, the expression "value" stands for "serotonin value".

The mark [3] stands for this setting: Lu-130 = small cell lung cancer, test drug for 2-4 days, read-out: IC50.
Setting [4] is: MMI = ovarian cancer, test drug for 2-4 days, read-out: IC50.
The mark [5] stands for this setting: N-231 = small cell lung cancer, test drug for 2-4 days, read-out: IC50.
Where [6] appears, read: SHIN-3 = ovarian cancer, test drug for 2-4 days, read-out: IC50.

Where a name gives a salt, the structure may show the parent alone. Read-outs that look alike come from different tables or passages of the source.

In the case of `COc1ccc2c(c[n+](C)c3c4cc5c(cc4ccc23)OCO5)c1O` [2,3-(methylenedioxy)-5-methyl-7-hydroxy-8-methoxy-benzo[c]phenanthridinium chloride], the stability on storage result in series [1] is “gradually decomposed”.
For `COc1ccc2c(c[n+](C)c3c4cc5c(cc4ccc23)OCO5)c1O` [Compound A-0, 2,3-(methylenedioxy)-5-methyl-7-hydroxy-8-methoxy-benzo[c]phenanthridinium hydrogen sulfate salt], the IC50 was determined as 0.15 µg/mL with HeLa S3 (HeLa S3); 0.055 µg/mL in the series on Lu-130; 0.12 µg/mL in the series on MMI; 0.036 µg/mL in the series with N-231; 0.192 µg/mL in the series with SHIN-3.
With `CC[n+]1cc2c(O)c(OC)ccc2c2ccc3cc4c(cc3c21)OCO4` [Compound A-1, 2,3-(methylenedioxy)-5-ethyl-7-hydroxy-8-methoxy-benzo[c]phenanthridinium hydrogen sulfate salt], the concentration for half-maximal inhibition (IC50) was determined as 0.177 µg/mL with HeLa S3 (HeLa S3 = carcinoma colli, test drug for 2-4 days, not part of the simultaneous comparison test, read-out: IC50); 0.25 µg/mL in the series with Lu-130 (setting [3]); 0.165 µg/mL with MMI (setting [4]); 0.04 µg/mL in the series on N-231 (setting [5]); 0.426 µg/mL with Nakajima; 0.17 µg/mL in the series on SHIN-3 (setting [6]). For the same molecule, the inhibition at 12.5 µg/mL in series [2] (Concentration 12.5 µg/ml) stood at 25.2%. Moreover, in series [2], the inhibition at 25 µg/mL was 49.6%. The same molecule yielded an inhibition at 50 µg/mL in series [2] of 74.1%. The molecule also came in with an inhibition at 100 µg/mL in series [2] of 96.5%.
`CCC[n+]1cc2c(O)c(OC)ccc2c2ccc3cc4c(cc3c21)OCO4` [Compound A-2, 2,3-(methylenedioxy)-5-(n-propyl)-7-hydroxy-8-methoxy-benzo[c]phenanthridinium hydrogen sulfate salt]: the IC50 came to 0.108 µg/mL in the series on Lu-130 (setting [3]); 0.273 µg/mL in the series on MMI (setting [4]); 0.085 µg/mL with N-231 (setting [5]); 0.777 µg/mL in the series with Nakajima; 0.414 µg/mL with SHIN-3 (setting [6]).
In the case of `CC[n+]1cc2c(O)c(OC)ccc2c2ccc3ccccc3c21.O=S(=O)([O-])O` [Compound A-3, 5-ethyl-7-hydroxy-8-methoxy-benzo[c]phenanthridinium hydrogen sulfate salt], half-maximal inhibition in the series on HeLa S3 (HeLa S3) (IC50) required 0.69 µg/mL.
As for `COc1ccc2c(c[n+](C)c3c4ccccc4ccc23)c1O.O=S(=O)([O-])O` [Compound A-4, 5-methyl-7-hydroxy-8-methoxy-benzo[c]phenanthridinium hydrogen sulfate salt], the half-inhibitory concentration (IC50) in the series with HeLa S3 (HeLa S3) was 0.26 µg/mL; in the series on Lu-130, 0.051 µg/mL; in the series with MMI, 0.262 µg/mL; in the series with N-231 it was 0.062 µg/mL; with SHIN-3, 0.155 µg/mL. Moreover, the inhibition at 25 µg/mL in series [2] came out at 10.9%. In addition, the inhibition at 50 µg/mL in series [2] turned out to be 26.5%. The molecule also returned an inhibition at 100 µg/mL in series [2] of 46.4%.
